Reference: the CheMixHub viscosity set
Several values for one entry are separate records, joined by “and”; a condition that tells them apart may be missing. Identical values can stand only once.

C1CCCCC1
Conditions	viscosity
293.15 K, 101 kPa	0.972 mPa·s
293.15 K, 101.3 kPa	0.986 mPa·s
298 K, 101 kPa	0.99 mPa·s
298 K, 101.3 kPa	0.883 mPa·s
298.15 K, 100 kPa	0.8956 mPa·s and 0.8961 mPa·s
298.15 K, 101.3 kPa	0.905 mPa·s and 0.8862 mPa·s
303 K, 101.33 kPa	0.8141 mPa·s
303.15 K, 100 kPa	0.82 mPa·s
303.15 K, 101.32 kPa	0.826 mPa·s
303.75 K, 101.33 kPa	0.8403 mPa·s
307.35 K, 101.33 kPa	0.76 mPa·s
307.4 K, 101.33 kPa	0.309 mPa·s
308 K, 101 kPa	0.86 mPa·s
308.15 K, 100 kPa	0.7316 mPa·s
308.15 K, 101.3 kPa	0.7483 mPa·s and 0.7592 mPa·s
312.75 K, 101.33 kPa	0.7277 mPa·s
313 K, 101.33 kPa	0.7045 mPa·s
313.15 K, 100 kPa	0.7 mPa·s
313.15 K, 101 kPa	0.687 mPa·s and 0.6934 mPa·s
313.15 K, 101.3 kPa	0.7003 mPa·s and 0.6886 mPa·s
313.15 K, 101.33 kPa	0.682 mPa·s and 0.6995 mPa·s
318 K, 101.3 kPa	0.6338 mPa·s and 0.6445 mPa·s
318 K, 101.33 kPa	0.6338 mPa·s
318.15 K, 101 kPa	0.649 mPa·s and 0.648 mPa·s and 0.655 mPa·s
321.15 K, 101.32 kPa	0.5964 mPa·s
322.15 K, 101.32 kPa	0.5901 mPa·s
323 K, 101 kPa	0.6023 mPa·s and 0.6009 mPa·s
323 K, 101.33 kPa	0.6126 mPa·s
323.15 K, 100 kPa	0.6074 mPa·s and 0.6 mPa·s and 0.6077 mPa·s
323.15 K, 101 kPa	0.607 mPa·s
323.15 K, 101.32 kPa	0.5842 mPa·s

CC(=O)OC(C)C(C)C (stereo unspecified)
101.33 kPa
Conditions	viscosity [mPa·s]
298.15 K	0.795
303.15 K	0.74
308.15 K	0.69

CC(CC(C)(C)C)CP(=O)([O-])CC(C)CC(C)(C)C.CCCC[P+](C)(CCCC)CCCC (stereo unspecified)
Conditions	viscosity [mPa·s]
323.15 K, 101 kPa	283

CCC(C)=O
Conditions	viscosity
293.15 K, 100 kPa	0.4 mPa·s and 0.4152 mPa·s
298 K, 101.3 kPa	0.475 mPa·s
298 K, 101.33 kPa	0.3774 mPa·s
298.15 K, 100 kPa	0.3992 mPa·s
298.15 K, 101.3 kPa	0.407 mPa·s
298.15 K, 101.33 kPa	0.384 mPa·s and 0.46 mPa·s and 0.39 mPa·s
299.15 K, 101.3 kPa	0.401 mPa·s
303.15 K, 101.3 kPa	0.364 mPa·s
303.15 K, 101.33 kPa	0.366 mPa·s
307.35 K, 101.33 kPa	0.35 mPa·s
308.15 K, 100 kPa	0.344 mPa·s and 0.3666 mPa·s
308.15 K, 101.33 kPa	0.342 mPa·s and 0.422 mPa·s
313.15 K, 101.3 kPa	0.356 mPa·s
318 K, 101.3 kPa	0.3429 mPa·s
318 K, 101.33 kPa	0.3417 mPa·s
318.15 K, 101 kPa	0.3194 mPa·s and 0.3213 mPa·s and 0.322 mPa·s
318.15 K, 101.3 kPa	0.343 mPa·s
318.15 K, 101.33 kPa	0.311 mPa·s and 0.397 mPa·s
323.15 K, 100 kPa	0.31 mPa·s and 0.304 mPa·s
323.15 K, 101.3 kPa	0.3327 mPa·s

CCCCCCCC(=O)OCC
100 kPa
Conditions	viscosity [mPa·s]
293.15 K	1.549
303.15 K	1.295
313.15 K	1.095
323.15 K	0.949

CCCCCCOC(C)=O
101.33 kPa
Conditions	viscosity [mPa·s]
293.15 K	1.078
303.15 K	0.782
313.15 K	0.672

CCCCOCC(C)O (stereo unspecified)
101.33 kPa
Conditions	viscosity [mPa·s]
298.15 K	2.855
308.15 K	2.142
318.15 K	1.655

CCCC[N+]1(C)CCCC1.FC(F)(F)C(F)(F)[P-](F)(F)(F)(C(F)(F)C(F)(F)F)C(F)(F)C(F)(F)F
101 kPa
Conditions	viscosity [mPa·s]
298.15 K	283.4
303.15 K	214
308.15 K	166.2
313.15 K	122.1
318.15 K	100.3
323.15 K	80.1

CCOC(=O)C(C)Br (stereo unspecified)
Conditions	viscosity [mPa·s]
303.15 K, 101 kPa	1.493

CC[n+]1ccn(C)c1.O=C([O-])C(F)(F)F
101 kPa
Conditions	viscosity [mPa·s]
293.15 K	39.5
298.15 K	32.9
303.15 K	27.5
313.15 K	19.9

CN(C)N
Conditions	viscosity [mPa·s]
293.15 K, 101.3 kPa	0.55

COC(C)=O
Conditions	viscosity
293.15 K, 101 kPa	0.411 mPa·s
303.15 K, 101.3 kPa	0.3448 mPa·s and 0.3442 mPa·s and 0.3448 mPa·s
313.15 K, 101 kPa	0.321 mPa·s and 0.3524 mPa·s and 0.331 mPa·s
313.15 K, 101.33 kPa	0.331 mPa·s
318.15 K, 101 kPa	0.299 mPa·s and 0.313 mPa·s

COCCOC
Conditions	viscosity
298 K, 101.3 kPa	0.432 mPa·s
298.15 K, 101 kPa	0.45 mPa·s
298.15 K, 101.33 kPa	0.4236 mPa·s
301.15 K, 100 kPa	0.6 mPa·s and 0.7 mPa·s
308.15 K, 101 kPa	0.445 mPa·s and 0.3812 mPa·s
308.15 K, 101.33 kPa	0.3847 mPa·s
313.15 K, 101 kPa	0.3628 mPa·s
318.15 K, 101 kPa	0.3444 mPa·s
318.15 K, 101.33 kPa	0.3496 mPa·s
323.15 K, 101 kPa	0.3284 mPa·s

COc1ccccc1N
viscosity
Conditions	298.15 K	303.15 K	308.15 K	313.15 K	318.15 K
100 kPa	5.374 mPa·s	–	–	–	–
101 kPa	–	4.924 mPa·s and 4.922 mPa·s and 4.922 mPa·s	4.512 mPa·s and 4.512 mPa·s	4.185 mPa·s and 4.185 mPa·s	3.883 mPa·s and 3.883 mPa·s

C[N+](C)(CCCS(=O)(=O)O)C1CCCCC1.Cc1ccc(S(=O)(=O)[O-])cc1
101 kPa
Conditions	viscosity [mPa·s]
303.15 K	113700
308.15 K	56930
313.15 K	32650
318.15 K	17830
323.15 K	10190

Cc1ccc(C)c(C)c1
102 kPa
Conditions	viscosity [mPa·s]
293.15 K	0.84
303.15 K	0.731
313.15 K	0.64
323.15 K	0.567
